Experiment: Intraocular pressure lowering effect in monkeys with normal intraocular pressure after instillation
Format: in vivo, Cynomolgus monkey
Settings: male cynomolgus monkeys with normal intraocular pressure, six per group, 20 μL instillation into one eye, 0.0006 w/v % present compound solution and/or Taflotan 0.0015%
Excerpt: In order to study the usefulness of a combination of the present compound with tafluprost, an intraocular pressure lowering effect when the present compound and tafluprost were concomitantly administered to experimental animals (monkeys with normal intraocular pressure) was examined.
An intraocular pressure lowering effect when the present compound and tafluprost were concomitantly administered was examined. As comparison subjects, intraocular pressure lowering effects when the present compound or tafluprost was administered singly were also examined. As a control, the base and physiological saline were administered.
Present compound solution: a 0.0006 w/v % present compound solution (instillation amount: 20 μL) […]
(2) Intraocular pressure was measured immediately before administering the test compound solution, and the measured intraocular pressure was defined as initial intraocular pressure. […]
(4) At 2, 4, 6 and 8 hours after instilling the present compound solution, one drop of the 0.4% oxybuprocaine hydrochloride eye drop was instilled into the eyes for which intraocular pressure was to be measured to effect local anesthesia, and then, intraocular pressure was measured. The intraocular pressure was measured in triplicate for each eye to obtain an average of three measurements, which is shown as the result. […]

Compound	Intraocular pressure lowering degree (change relative to average of control group) at 6 hours after instillation [mmHg]
CC(C)OC(=O)CNc1cccc(CN(Cc2ccc(-n3cccn3)cc2)S(=O)(=O)c2cccnc2)n1 [Present compound, isopropyl(6-{[4-(pyrazol-1-yl)benzyl](pyridin-3-ylsulfonyl)aminomethyl}pyridin-2-ylamino)acetate]	2.6
CC(C)OC(=O)CCC/C=C\C[C@@H]1[C@@H](/C=C/C(F)(F)COc2ccccc2)[C@H](O)C[C@@H]1O [tafluprost, 1-methylethyl (5Z)-7-{(1R,2R,3R,5S)-2-[(1E)-3,3-difluoro-4-phenoxy-1-butenyl]-3,5-dihydroxycyclopentyl}-5-heptenoate]	1.9

Reference: patent US20140018350A1, “COMBINATION OF SULFONAMIDE COMPOUND AND TAFLUPROST” (priority 2012, published 2014)
